Assay results reported in PMC10137938 (Foods, 2023).
Residues, ends and D or L forms follow the SMILES beside them.

Assays:
ACE = ACE (Homo sapiens, UniProt P12821); assay: Assay of ACE inhibitory activity (HHL hydrolysis, HPLC of hippuric acid); assay type: biochemical; details: in vitro; substrate HHL, borate buffer, 37 °C, 5 min coincubation with HHL, 30 min reaction, HCl stop; 7 concentrations; HPLC C18 at 228 nm; GraphPad Prism 7.0
Protocol: IC50 refers to the semi-inhibitory concentration; here, the principle of in vitro IC50 determination of the potential ACE inhibitory peptide is that ACE can hydrolyse HHL into […] and dipeptide. HHL and tetrapeptide are competitive, and when ACE binds to the tetrapeptide, it will reduce the production of the product […]; the IC50 activity of the tetrapeptide is when it is reduced by half of the original concentration. The water bath temperature was controlled at 37 °C, and the initial mass concentration of each tetrapeptide was […]. The tetrapeptide was diluted with borate buffer solution into 7 concentration gradients, and coincubated with HHL buffer for 5 min. Then, the ACE solution was added to initiate the reaction, and the reaction was terminated by the addition of HCl after 30 min of system reaction. Afterwards, the reaction was analysed on a C18 column, with HPLC detection at 228 nm and an injection volume of 10 μL. The mobile phases were water and acetonitrile at 75% and 25%, respectively, with a flow rate of 1 mL/min, and isocratic elution for 7 min (acetonitrile and water containing 0.1% trifluoroacetic acid). ACE inhibition was calculated as ACE inhibition = ((b − c) − (a − c))/(b − c) × 100% (a: peak area of hippuric acid in the experimental group; b: peak area of hippuric acid in the blank group; c: peak area of hippuric acid in the control group), and the inhibition rate was converted into IC50 values by the software graphpad prism 7.0.

[1] = target: Angiotensin-converting enzyme (ACE) (UniProt P12821)
Sequence of Angiotensin-converting enzyme (ACE) (P12821 30-1306): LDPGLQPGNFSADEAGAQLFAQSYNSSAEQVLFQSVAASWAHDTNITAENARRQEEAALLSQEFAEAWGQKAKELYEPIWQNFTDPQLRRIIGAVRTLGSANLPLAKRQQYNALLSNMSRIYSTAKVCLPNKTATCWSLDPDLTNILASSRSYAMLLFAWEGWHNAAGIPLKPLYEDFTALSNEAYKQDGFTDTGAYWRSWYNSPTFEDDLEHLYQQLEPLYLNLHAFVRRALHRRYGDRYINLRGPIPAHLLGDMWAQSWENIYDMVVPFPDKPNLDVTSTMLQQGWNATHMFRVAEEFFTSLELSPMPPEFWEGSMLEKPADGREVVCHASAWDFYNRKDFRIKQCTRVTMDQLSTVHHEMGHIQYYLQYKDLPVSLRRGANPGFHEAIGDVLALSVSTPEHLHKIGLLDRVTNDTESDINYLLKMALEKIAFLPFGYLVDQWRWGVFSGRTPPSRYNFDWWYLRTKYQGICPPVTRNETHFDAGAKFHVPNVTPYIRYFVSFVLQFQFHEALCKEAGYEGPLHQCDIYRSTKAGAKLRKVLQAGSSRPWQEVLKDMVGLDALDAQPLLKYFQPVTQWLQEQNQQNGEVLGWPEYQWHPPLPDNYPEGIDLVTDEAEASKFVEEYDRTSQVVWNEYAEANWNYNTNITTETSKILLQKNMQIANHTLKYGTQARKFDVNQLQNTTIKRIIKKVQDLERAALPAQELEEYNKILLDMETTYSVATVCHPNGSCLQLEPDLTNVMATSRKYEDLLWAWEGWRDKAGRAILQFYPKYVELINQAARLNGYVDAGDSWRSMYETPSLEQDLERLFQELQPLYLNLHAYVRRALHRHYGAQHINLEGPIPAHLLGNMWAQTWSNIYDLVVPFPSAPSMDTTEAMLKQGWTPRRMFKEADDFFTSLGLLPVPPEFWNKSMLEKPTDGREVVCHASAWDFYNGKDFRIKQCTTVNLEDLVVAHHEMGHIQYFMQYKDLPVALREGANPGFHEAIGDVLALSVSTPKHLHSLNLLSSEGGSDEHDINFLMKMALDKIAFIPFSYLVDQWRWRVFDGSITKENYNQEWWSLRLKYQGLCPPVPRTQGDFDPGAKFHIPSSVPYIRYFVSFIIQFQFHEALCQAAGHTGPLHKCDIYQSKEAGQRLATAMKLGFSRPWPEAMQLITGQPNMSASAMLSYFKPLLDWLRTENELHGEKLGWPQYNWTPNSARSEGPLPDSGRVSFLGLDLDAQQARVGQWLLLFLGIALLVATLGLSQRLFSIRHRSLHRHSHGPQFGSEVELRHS

Sequence of ACE (P12821 30-1306, species assumed): as the sequence (P12821 30-1306) above

| Molecule | IC50 (ACE) [µM] | IC50 of inhibition of ACE activity (hydrolysis of HHL to hippuric acid, HPLC at 228 nm, 37 °C) [1] [µM] |
| --- | --- | --- |
| NCC(=O)NCC(=O)N[C@@H](CO)C(=O)NCC(=O)O [GGSG] (H-GGSG-OH) | > 5000 |  |
| N=C(N)NCCC[C@H](NC(=O)[C@@H](N)CCCNC(=N)N)C(=O)N[C@@H](Cc1ccc(O)cc1)C(=O)N[C@@H](CCC(N)=O)C(=O)O [RRYQ] (H-RRYQ-OH) | 115 ± 6.15 |  |
| N=C(N)NCCC[C@H](N)C(=O)N[C@@H](Cc1c[nH]c2ccccc12)C(=O)N[C@@H](Cc1c[nH]c2ccccc12)C(=O)N[C@@H](CC(=O)O)C(=O)O [RWWD] (H-RWWD-OH) | 129 ± 8.32 |  |
| N[C@@H](CO)C(=O)NCC(=O)NCC(=O)NCC(=O)O [SGGG] (H-SGGG-OH) | > 5000 |  |
| CC(C)[C@H](NC(=O)[C@H](CCCNC(=N)N)NC(=O)[C@H](Cc1ccccc1)NC(=O)[C@@H](N)Cc1c[nH]c2ccccc12)C(=O)O [WFRV] (H-WFRV-OH) | 31.8 ± 0.83 |  |
| N[C@@H](Cc1c[nH]c2ccccc12)C(=O)N[C@@H](Cc1ccccc1)C(=O)N[C@@H](CO)C(=O)N[C@@H](Cc1c[nH]c2ccccc12)C(=O)O [WFSW] (H-WFSW-OH) | 148 ± 14.3 |  |
| N=C(N)NCCC[C@H](NC(=O)[C@@H](N)Cc1c[nH]c2ccccc12)C(=O)N[C@@H](Cc1ccccc1)C(=O)N[C@@H](Cc1ccccc1)C(=O)O [WRFF] (H-WRFF-OH) | 141 ± 3.9 |  |
| N=C(N)NCCC[C@H](NC(=O)[C@@H](N)Cc1c[nH]c2ccccc12)C(=O)N[C@@H](CCC(N)=O)C(=O)N[C@@H](Cc1ccccc1)C(=O)O [WRQF] (H-WRQF-OH) | 29.6 ± 6.75 |  |
| N[C@@H](Cc1c[nH]c2ccccc12)C(=O)N[C@@H](Cc1c[nH]c2ccccc12)C(=O)N[C@@H](CC(=O)O)C(=O)N[C@@H](Cc1c[nH]c2ccccc12)C(=O)O [WWDW] (H-WWDW-OH) | 36.8 ± 1.32 |  |
| NC(=O)C[C@H](NC(=O)[C@H](Cc1c[nH]c2ccccc12)NC(=O)[C@@H](N)Cc1c[nH]c2ccccc12)C(=O)N[C@@H](Cc1c[nH]c2ccccc12)C(=O)O [WWNW] (H-WWNW-OH) | 26.4 ± 3.81 |  |
| C[C@@H](O)[C@H](NC(=O)[C@H](Cc1c[nH]c2ccccc12)NC(=O)[C@@H](N)Cc1c[nH]c2ccccc12)C(=O)N[C@@H](Cc1ccc(O)cc1)C(=O)O [WWTY] (H-WWTY-OH) | 28.5 ± 0.99 |  |
| NCCCC[C@H](NC(=O)[C@H](Cc1c[nH]c2ccccc12)NC(=O)[C@H](Cc1ccc(O)cc1)NC(=O)[C@@H](N)Cc1ccc(O)cc1)C(=O)O [YYWK] (H-YYWK-OH) | 20 ± 8.19 |  |
| tetrapeptide RRYQ |  | 115 |
| tetrapeptide WFRV |  | 31.8 |
| WWNW [tetrapeptide WWNW] |  | 26.4 |
| WFSW [tetrapeptide WFSW] |  | 148 |
| WRFF [tetrapeptide WRFF] |  | 141 |
| WRQF [tetrapeptide WRQF] |  | 29.6 |
| RWWD [tetrapeptide RWWD] |  | 129 |
| YYWK [tetrapeptide YYWK] |  | 20 |
| WWDW [tetrapeptide WWDW] |  | 36.8 |
| WWTY [tetrapeptide WWTY] |  | 28.5 |
